The subject of one data set is Hepatitis B virus. In words: Antiviral activity against Hepatitis B virus ayw infected in human HepG2.2.15 cells. The format is functional, organism-based, Hepatitis B virus subtype ayw.
Data set [1] is described as follows: Cytotoxicity against human HepG2.2.15 cells assessed as reduction in cell viability. The format is cell-based, HepG2 2.2.15.
A further data set deals with Poliovirus 1. In words: Antiviral activity against Polio virus type 1 infected in monkey LLC-MK2 clone 7.1 cells. It is filed as functional, organism-based.
The subject of a further data set is Yellow fever virus. In words: Antiviral activity against Yellow fever virus 17D infected in African green monkey Vero cells. The format is functional, organism-based.
For a further data set, the system named is LLC-MK2. In words: Cytotoxicity against monkey LLC-MK2 clone 7.1 cells assessed as reduction in cell viability. It is filed as cell-based, Macaca mulatta. The settings on record: rhesus monkey.
For the next data set, the system named is SARS-CoV. In words: Antiviral activity against SARS coronavirus Toronto-2 infected in African green monkey Vero E6 cells. The note with it: Severe acute respiratory syndrome-related coronavirus, Vero C1008. It is filed as functional, organism-based.
For a further data set, the system named is Vero C1008. In words: Cytotoxicity against African green monkey Vero E6 cells assessed as reduction in cell viability. It is filed as cell-based. The note with it: chlorocebus sabaeus.
The test system of a further data set is Human orthopneumovirus. In words: Antiviral activity against Respiratory syncytial virus A infected in human Hep2 cells. The format is functional, organism-based. The settings on record: type A.
The subject of a further data set is HEp-2. In words: Cytotoxicity against human Hep2 cells assessed as reduction in cell viability. The format is cell-based.
Another data set has as its system Hepatitis C virus. In words: Antiviral activity against Hepatitis C virus Con1 infected in human Huh-Luc-Neo cells. The settings on record: Hepacivirus hominis; isolate Con1. The format is functional, organism-based.
A short description of data set [2]: Cytotoxicity against human Huh-Luc-Neo cells assessed as reduction in cell viability. It is filed as cell-based.
The test system of the next data set is Human alphaherpesvirus 1. In words: Antiviral activity against Herpes simplex virus 1 E-377 infected in HFF. It is filed as functional, organism-based.
Another data set deals with Human alphaherpesvirus 2. In words: Antiviral activity against Herpes simplex virus 2 G infected in HFF. It is filed as functional, organism-based.
The test system of the next data set is Vaccinia virus. In words: Antiviral activity against Vaccinia virus Copenhagen infected in HFF cells. The format is functional, organism-based. The note with it: Orthopoxvirus vaccinia.
A further data set relates to dengue virus type 2. In words: Antiviral activity against Dengue virus type 2 New guinea infected in African green monkey Vero 76 cells. The format is functional, organism-based.
Another data set relates to Vero 76. In words: Cytotoxicity against African green monkey Vero 76 cells assessed as reduction in cell viability. The format is cell-based. The settings on record: chlorocebus sabaeus.
The next data set has as its system Rift Valley fever virus. In words: Antiviral activity against Rift Valley fever virus MP-12 infected in African green monkey Vero 76 cells. It is filed as functional, organism-based.
Data set [3] deals with Venezuelan equine encephalitis virus. In words: Antiviral activity against Venezuelan equine encephalitis virus TC-83 infected in African green monkey Vero cells. It is filed as functional, organism-based.
A further data set relates to Vero. In words: Cytotoxicity against African green monkey Vero cells assessed as reduction in cell viability. It is filed as cell-based. The settings on record: chlorocebus sabaeus.
The test system of a further data set is Influenza A virus. In words: Antiviral activity against Influenza A virus (A/California/07/2009(H1N1)) infected in MDCK cells. The format is functional, organism-based.
A further data set deals with MDCK. In words: Cytotoxicity against MDCK cells assessed as reduction in cell viability. The format is cell-based, Canis lupus familiaris. The settings on record: dog.
Another data set has as its system West Nile virus. In words: Antiviral activity against West Nile virus KERN 515/WN02 infected in MDCK cells. It is filed as functional, organism-based.
Another data set concerns Human betaherpesvirus 5. In words: Antiviral activity against Human cytomegalovirus AD169 infected in HFF. The settings on record: Human betaherpesvirus 5, AD169, HFF. The format is functional, organism-based.
A short description of data set [4]: Cytotoxicity against HFF assessed as reduction in cell viability. The format is cell-based. The settings on record: human, HFF cells.

Activity calls are given as the source filed them. The rule behind the calls is not given here. Bounds are passed on as bounds.

A word on the EC50: it is the concentration that produces a half-maximal response. By CC50 is commonly meant the concentration giving 50% cytotoxicity. Take `Nc1ncnc2c1ncn2[C@@H]1C[C@H]([C@H](O)CO)[C@@H](O)[C@H]1O`: in the data set on Hepatitis B virus, the concentration giving a half-maximal response (EC50) was 7.1 µM. In data set [1], the CC50 was more than 100 µM. The outcome in the data set on Poliovirus 1, in the data set on Yellow fever virus, in the data set on SARS-CoV, with Human orthopneumovirus, in the data set with Hepatitis C virus and with Human alphaherpesvirus 1 was inactive. Besides, the outcome (with Human alphaherpesvirus 2; in the data set on Vaccinia virus; in the data set with dengue virus type 2; with Rift Valley fever virus; in data set [3]; in the data set with Influenza A virus) was inactive. For the same molecule, the outcome in the data set on West Nile virus was inactive. In addition, the Activity entry (with LLC-MK2; in the data set on Vero C1008; in the data set with HEp-2; in [2]; in the data set with Vero 76; in the data set with Vero) was “Non-Toxic” in each case. In the data set with MDCK, the Activity result is listed as “Non-Toxic”.
`Nc1ncnc2c1ncn2[C@@H]1C[C@H]([C@@H](O)CO)[C@@H](O)[C@H]1O`: the half-maximal effective concentration (EC50) with Hepatitis B virus came out at 7.4 µM; in the data set with Human betaherpesvirus 5, 0.72 µM. Further, the CC50 is more than 100 µM in [1] and more than 300 µM in data set [4]. For the same molecule, the outcome in the data set with Poliovirus 1, in the data set with SARS-CoV, with Human orthopneumovirus, in the data set on Hepatitis C virus, in the data set with Human alphaherpesvirus 1 and in the data set with Human alphaherpesvirus 2 was inactive. For the same molecule, the result (in the data set on Vaccinia virus; with dengue virus type 2; in the data set on Rift Valley fever virus; in [3]; with Influenza A virus; with West Nile virus) was inactive. The Activity entry (in the data set on LLC-MK2; in the data set on Vero C1008; in the data set on HEp-2; in data set [2]; with Vero 76; in the data set on Vero) was “Non-Toxic” in each case. Besides, the Activity entry in the data set on MDCK is on record as “Non-Toxic”.

The record behind these values is ChEMBL document CHEMBL4219208, “5'-Hydroxy-5'-homoaristeromycin: Synthesis and antiviral properties” (Bioorg Med Chem Lett, 2018).
